Values joined by “and” are separate entries in the source; they are usually repeats but may differ in a detail not shown here. Identical values can stand only once. “Also recorded” adds a separate entry of the source. Marks after values point to notes of the source that are not given here.
Key:
RSV [1] = test: Phase 2 study: RSV viral load by quantitative reverse-transcription PCR on nasopharyngeal swab or aspirate; assay type: in vivo, human (infants); settings: for greater reduction in median viral load than placebo: Part 2, 2 mg/kg bid, not statistically significant
Source text: This was a double‐blind, placebo‐controlled, randomized, multicenter study with the primary objective to evaluate the safety and tolerability of single and multiple oral doses of AK0529. Secondary objectives were to evaluate the effect of AK0529 on Wang Respiratory Score, to determine the effects of treatment on viral load, and to characterize the pharmacokinetics (PK) of single and multiple AK0529 doses.
The study consisted of two parts. In both parts, subjects were randomized in a 2:1 ratio to receive active treatment or placebo. Subjects were stratified by age (6 to 24 months in Cohorts 1 and 3, and 1 to <6 months in Cohorts 2 and 4).
Part 1 was a single‐dose study with a 7‐day follow‐up. The doses administered to patients in Cohort 1 included 4, 2, and 1 mg/kg. The Safety Review Committee (SRC) reviewed PK and safety data after each of the sets of three patients, before further enrollment of subjects, and recommended 0.5 and 1 mg/kg as the doses for patients in Cohort 2.
In Part 2, subjects received AK0529 or placebo over 5 days and were followed until day 14 post‐initial dose. The doses in Cohort 3 included 1 and 0.5 mg/kg bid. In Cohort 4, the doses included 2, 1 and 0.5 mg/kg bid.

RSV infection = test: Phase 2 study: Wang Respiratory Score; assay type: in vivo, human (infants); settings: for Hodges–Lehmann estimation of between-group difference in Wang Respiratory Score: Part 2, 2 mg/kg vs placebo, 96 h
[2] = Phase 2 study: safety and tolerability (adverse events); assay type: in vivo, human (infants)
Protocol: Safety and tolerability was evaluated by clinical assessment of safety data, including laboratory data, electrocardiographic data, vital signs, and adverse events (AEs).
Clinical safety and tolerability were assessed on the safety population, comprising all subjects who received ≥1 dose of study drug. Clinical variables were evaluated in the full analysis population, which included all subjects who received a dose of study drug and for whom ≥1 post‐treatment assessment was available. Pharmacokinetic analysis was performed on those subjects in the safety population for whom both pre‐ and post‐dose samples were available.

[3] = test system: laboratory strains of RSV-A and RSV-B; test: Cytopathic effect (CPE) assay using Hep-2 cells; assay type: cell-based, human RSV; settings: human respiratory syncytial virus
Protocol: The EC90 value was determined in the presence of the known plasma protein binding in the CPE assay. […] To achieve a target efficacious concentration in humans, it was expected that a minimum target of 5 × EC90 value, or approximately 40 ng/mL should be attained. To maintain the effectiveness, this target Ctrough level was required to be achieved across the dosing interval.

[4] = test system: clinical RSV isolates (31 A-subtypes and 29 B-subtypes); set-up: method as in PMID 31194544; settings: all clinical RSV isolates (31 A-subtypes and 29 B-subtypes) ref 9; cited from earlier work
RSV [5] = test system: RSV; set-up: method as in PMID 31194544; settings: orally administered ref 9; cited from earlier work
[6] = set-up: method as in Supporting Information; settings: multiple doses up to 300 mg bid ref Supporting Information; cited from earlier work
[7] = set-up: method as in Study AK0529-1001; settings: single doses of 100 mg and above ref Study AK0529-1001; cited from earlier work
[8] = test system: recombinant RSV T400I variant; test: Resistance test with recombinant RSV T400I variant
[9] = TEAE, preferred term, AK0529 N=49
[10] = TEAE, system organ class, AK0529 N=49

With `Cc1ccc2nc(N3CCS(=O)(=O)c4ccccc4C3)nc(NCC3(N)COC3)c2c1` [AK0529, ziresovir] the “reductions in viral load relative to placebo” value (RSV [1]; Part 1, 24 h after a single dose) was under 1 log10 PFUe/mL, the “greater reduction in median viral load than placebo” value (RSV [1]; 72 h) was 1.25 log10 PFUe/mL and the “greater reduction in median viral load than placebo” value (RSV [1]; 96 h post-dose) was 1.73 log10 PFUe/mL. The “median Wang Respiratory Score change” value (RSV infection; Part 1, single dose, baseline to 24 h, one-sided p = 0.004 combined AK0529 groups vs placebo) was “decreased from baseline to 24 h in a dose‐related manner”, the “median reduction in Wang Respiratory Score from baseline” value (RSV infection; Part 2, 2 mg/kg bid, baseline to 96 h, 95% CI −4.51, −2.03, placebo −2.0, one-sided p = 0.031) was −4.0 and the “Hodges–Lehmann estimation of between-group difference in Wang Respiratory Score” value (RSV infection; full analysis population, 95% CI −2, 1) was −1. For the same molecule, the “Hodges–Lehmann estimation of between-group difference in Wang Respiratory Score” value (RSV infection; two cases of bacterial pneumonia excluded, 95% CI −2, 0, p = 0.009) was −1, the “patients achieving disease remission (Wang Respiratory Score ≤1)” value (RSV infection; post-hoc, 2 mg/kg bid, by Day 5, 8/11 patients, placebo 31%, p 0.0412) was 73% and the “Subjects with any AEs” value ([2]; AK0529 all doses N = 49) was 25 (51.0%) n (%). For the same molecule, the “Subjects with any TEAEs” value ([2]; AK0529 all doses N = 49) was 24 (49.0%) n (%), the “Subjects with any TEAEs induced withdrawal” value ([2]; AK0529 all doses N = 49) was 0 n (%) and the “Subjects with any TEAEs leading to death” value ([2]; AK0529 all doses N = 49) was 0 n (%). The “Subjects with any drug related TEAEs” value ([2]; AK0529 all doses N = 49) was 3 (6.1%) ^a n (%), the “Subjects with any grade ≥3 TEAEs” value ([2]; AK0529 all doses N = 49) was 2 (4.1%) ^c n (%) and the “Subjects with any serious TEAEs” value ([2]; AK0529 all doses N = 49, two cases of unrelated pneumonia) was 2 (4.1%) ^b n (%). For the same molecule, the “patients reporting grade ≥1 TEAEs” value ([2]; AK0529 group 24/49) was 49.0%, the “subjects with Grade 1 TEAE considered drug-related by the investigator” value ([2]; AK0529 group, three subjects) was 6% and the “patients experiencing a serious TEAE” value ([2]; AK0529 group, two of 49, none related to drug treatment) was 4.1%. For the same molecule, the “withdrawals or deaths because of TEAEs” value ([2]; AK0529 groups) was “No withdrawals or deaths; also recorded: none led to death or withdrawal from the study”, the “patients with grade ≥3 treatment-emergent adverse events” value ([2]; AK0529 groups 2/49) was 4.1% and the Acute tonsillitis [2, 9] was 1 (2.0%) n (%). For the same molecule, the Anemia [2, 9] was 1 (2.0%) n (%), the Aspartate aminotransferase increased [2, 9] was 3 (6.1%) n (%) and the Candida infection [2, 9] was 1 (2.0%) n (%). The Conjunctivitis [2, 9] was 1 (2.0%) n (%), the Constipation [2, 9] was 0 n (%) and the Dermatitis [2, 9] was 1 (2.0%) n (%). The Dermatitis diaper [2, 9] was 4 (8.2%) n (%), the Diarrhea [2, 9] was 2 (4.1%) n (%) and the Epistaxis [2, 9] was 2 (4.1%) n (%). The Erythema of eyelid [2, 9] was 1 (2.0%) n (%), the Eye pruritus [2, 9] was 0 n (%) and the Flatulence [2, 9] was 1 (2.0%) n (%). For the same molecule, the Gastrointestinal inflammation [2, 9] was 1 (2.0%) n (%), the Hematochezia [2, 9] was 0 n (%) and the Hepatitis [2, 9] was 2 (4.1%) n (%). The Hyperkalemia [2, 9] was 2 (4.1%) n (%), the Hyperphosphatemia [2, 9] was 1 (2.0%) n (%) and the Impaired gastric emptying [2, 9] was 0 n (%). The Injection site extravasation [2, 9] was 1 (2.0%) n (%), the Leukocytosis [2, 9] was 1 (2.0%) n (%) and the Metabolic acidosis [2, 9] was 1 (2.0%) n (%). The Nasopharyngitis [2, 9] was 1 (2.0%) n (%), the Oral candidiasis [2, 9] was 1 (2.0%) n (%) and the Otitis media acute [2, 9] was 2 (4.1%) n (%). For the same molecule, the Pneumonia [2, 9] was 3 (6.1%) n (%), the Pyrexia [2, 9] was 1 (2.0%) n (%) and the Rash [2, 9] was 1 (2.0%) n (%). For the same molecule, the Rotavirus test positive [2, 9] was 0 n (%), the Thrombocytosis [2, 9] was 1 (2.0%) n (%) and the Transaminases increased [2, 9] was 2 (4.1%) n (%). The “Upper respiratory tract infection” value [2, 9] was 1 (2.0%) n (%), the “Urine ketone body present” value [2, 9] was 1 (2.0%) n (%) and the Vomiting [2, 9] was 1 (2.0%) n (%). The “Blood and lymphatic system disorders” value [2, 10] was 3 (6.1%) n (%), the Eye disorders [2, 10] was 1 (2.0%) n (%) and the Gastrointestinal disorders [2, 10] was 5 (10.2%) n (%). For the same molecule, the “General disorders and administration site conditions” value [2, 10] was 1 (2.0%) n (%), the Hepatobiliary disorders [2, 10] was 2 (4.1%) n (%) and the Infections and infestations [2, 10] was 5 (10.2%) n (%). For the same molecule, the “Injury, poisoning and procedural complications” value [2, 10] was 1 (2.0%) n (%), the Investigations [2, 10] was 6 (12.2%) n (%) and the “Metabolism and nutrition disorders” value [2, 10] was 4 (8.2%) n (%). The “Respiratory, thoracic and mediastinal disorders” value [2, 10] was 6 (12.2%) n (%), the “Skin and subcutaneous tissue disorders” value [2, 10] was 6 (12.2%) n (%) and the overall tolerability ([2]; hospitalized RSV-infected infant patients) was “well tolerated”. The Bacterial infection ([2]; human, in vivo) was 0 n (%), the minimum target trough concentration (5 × EC90) ([3]; HEp-2, target Ctrough in humans, read-out: 5 × EC90 value (minimum target efficacious concentration)) was 0.04 µg/mL and the EC90 ([3]; Hep-2 cells, CPE assay, read-out: EC90 of the RSV-induced reduction of cell viability (average)) was 5 nM and 0.0022 µg/mL. The “antiviral activity EC90” value [4] was “nanomolar concentrations”, the antiviral efficacy (RSV [5]) was “demonstrated antiviral efficacy” and the tolerability [6] was “good tolerability”. For the same molecule, the “mean plasma concentration levels at 12 hours post-dose” value [7] was over 50 ng/mL and the “susceptibility of recombinant RSV T400I variant” value [8] was “resistance”.

From article PMC10368966, “Safety and efficacy of AK0529 in respiratory syncytial virus‐infected infant patients: A phase 2 proof‐of‐concept trial” (Influenza and Other Respiratory Viruses, 2023)
